In US20250074901A1, “NOVEL HETEROARYL COMPOUNDS” (ICAGEN, LLC, priority 2021, published 2025):

Biological target: T1, Kv7.2 (Homo sapiens, UniProt O43526)
T1 construct: expressed in transfected cells
Assay: Activation of Kv7.2 (in vitro assay, concentration response curve)
Assay type: cell-based
Conditions: for Emax: Kv7.2 activation max %; for EC50: activation of Kv7.2
Procedure, shortened: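 EC50 is the half-maximal effective concentration, relative to the Emax observed for each compound in this in vitro assay. It was derived from concentration–response curves of the agonistic effect measured over a series of concentrations.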

SMILES	Emax [%]	EC50 [nM]
O=C(NCc1ccnc(OC(F)F)c1)NCC1(C(F)F)CCC1 [Example 191, 1-[[2-(difluoromethoxy)pyridin-4-yl]methyl]-3-[[1-(difluoromethyl)cyclobutyl]methyl]urea]	68	450
O=C(NCc1ccnc(OC(F)F)c1)NC1COc2ccccc2C1 (centres unmarked) [Example 192, 1-[[2-(difluoromethoxy)pyridin-4-yl]methyl]-3-(3,4-dihydro-2H-chromen-3-yl)urea]	51	240
C[C@]1(NC(=O)NCc2ccnc(OC(F)F)c2)C[C@@H](C(F)(F)F)C1 [Example 194, 1-[[2-(difluoromethoxy)pyridin-4-yl]methyl]-3-[(1r,3r)-1-methyl-3-(trifluoromethyl)cyclobutyl]urea]	40	1540
O=C(NCc1ccnc(OC(F)F)c1)N[C@H]1C[C@@H]2CC(F)(F)C[C@@H]2C1 [Example 195, 1-[[2-(difluoromethoxy)pyridin-4-yl]methyl]-3-[(2r,3aR,6aS)-5,5-difluoro-2,3,3a,4,6,6a-hexahydro-1H-pentalen-2-yl]urea]	51	290
O=C(NCc1ccnc(OC(F)F)c1)N[C@H]1C[C@@H](C(F)(F)F)C1 [Example 198, 1-[[2-(difluoromethoxy)pyridin-4-yl]methyl]-3-[(1s,3s)-3-(trifluoromethyl)cyclobutyl]urea]	65	400
C[C@@H](F)COc1cc(CNC(=O)N[C@H]2C[C@H](C(F)(F)F)C2)ccn1 [Example 199, 1-[[2-[(2R)-2-fluoropropoxy]pyridin-4-yl]methyl]-3-[(1r,3r)-3-(trifluoromethyl)cyclobutyl]urea]	52	290
CC(F)(F)c1cc(CNC(=O)NC23CC(F)(C2)C3)ccn1 [Example 200, 1-[[2-(1,1-difluoroethyl)pyridin-4-yl]methyl]-3-(3-fluoro-1-bicyclo[1.1.1]pentanyl)urea]	54	4930
CC(F)(F)COc1cc(CNC(=O)NC23CC(F)(C2)C3)ccn1 [Example 201, 1-[[2-(2,2-difluoropropoxy)pyridin-4-yl]methyl]-3-(3-fluoro-1-bicyclo[1.1.1]pentanyl)urea]	60	210
C[C@H](F)COc1cc(CNC(=O)N[C@H]2C[C@H](C(F)(F)F)C2)ccn1 [Example 202, 1-[[2-[(2S)-2-fluoropropoxy]pyridin-4-yl]methyl]-3-[(1r,3r)-3-(trifluoromethyl)cyclobutyl]urea]	57	260
O=C(NCc1ccnc(OCC(F)(F)F)n1)Nc1cccc(Cl)c1 [Example 203, 1-(3-chlorophenyl)-3-[[2-(2,2,2-trifluoroethoxy)pyrimidin-4-yl]methyl]urea]	42	210
O=C(NCc1ccnc(OCC(F)(F)F)n1)N[C@H]1C[C@H](C(F)(F)F)C1 [Example 204, 1-[[2-(2,2,2-trifluoroethoxy)pyrimidin-4-yl]methyl]-3-[(1r,3r)-3-(trifluoromethyl)cyclobutyl]urea]	45	340
Cc1cc(NC(=O)NC(CO)c2ccnc(OCC(F)(F)F)c2)ccc1F (centres unmarked) [Example 205, 1-(4-fluoro-3-methylphenyl)-3-[2-hydroxy-1-[2-(2,2,2-trifluoroethoxy)pyridin-4-yl]ethyl]urea]	64	240
O=C(NCc1ccnc(OCF)c1)NC12CCC(F)(CC1)CC2 [Example 208, 1-(4-fluoro-1-bicyclo[2.2.2]octanyl)-3-[[2-(fluoromethoxy)pyridin-4-yl]methyl]urea]	58	470
O=C(NCc1ccnc(OC2CC(F)(F)C2)c1)N[C@H]1C[C@H](C(F)(F)F)C1 [Example 209, 1-[[2-(3,3-difluorocyclobutyl)oxypyridin-4-yl]methyl]-3-[(1r,3r)-3-(trifluoromethyl)cyclobutyl]urea]	71	490
O=C(NCc1ccnc(OCC(F)(F)F)c1)NCC1(F)CCC1 [Example 210, 1-[(1-fluorocyclobutyl)methyl]-3-[[2-(2,2,2-trifluoroethoxy)pyridin-4-yl]methyl]urea]	48	160
O=C(NCc1ccnc(OC(F)F)c1)N[C@H]1CC[C@@H](C(F)(F)F)CC1 [Example 211, 1-[[2-(difluoromethoxy)pyridin-4-yl]methyl]-3-[(1s,4s)-4-(trifluoromethyl)cyclohexyl]urea]	61	320
C[Si](C)(C)CCNC(=O)NCc1ccnc(OC(F)F)c1 [Example 212, 1-[[2-(difluoromethoxy)pyridin-4-yl]methyl]-3-(2-trimethylsilylethyl) urea]	82	400
O=C(NCc1ccnc(OCC(F)CF)c1)NC12CCC(F)(CC1)CC2 (centres unmarked) [Example 213, 1-[[2-(2,3-difluoropropoxy)pyridin-4-yl]methyl]-3-(4-fluoro-1-bicyclo[2.2.2]octanyl)urea]	47	340
O=C(NCc1ccnc(OCC(F)CF)c1)N[C@H]1C[C@H](C(F)(F)F)C1 (some centres unmarked) [Example 214, 1-[[2-(2,3-difluoropropoxy)pyridin-4-yl]methyl]-3-[(1r,3r)-3-(trifluoromethyl)cyclobutyl]urea]	54	500

SMILES	Emax [%]	EC50 [nM]
O=C(NCc1cnnc(OCC(F)(F)F)c1)N[C@H]1C[C@H](C(F)(F)F)C1 [Example 215]	40	6830
O=C(NCc1ccnc(OCC(F)CF)c1)NC12CC(F)(C1)C2 (centres unmarked) [Example 216, 1-[[2-(2,3-difluoropropoxy)pyridin-4-yl]methyl]-3-(3-fluoro-1-bicyclo[1.1.1]pentanyl)urea]	50	1470
O=C(NCc1ccnc(OCC(F)F)c1)NC12CC(F)(C1)C2 [Example 217, 1-[[2-(2,2-difluoroethoxy)pyridin-4-yl]methyl]-3-(3-fluoro-1-bicyclo[1.1.1]pentanyl)urea]	43	310
Cc1cccc(NC(=O)NCc2ccnc(OC(F)F)c2)n1 [Example 218, 1-[[2-(difluoromethoxy)pyridin-4-yl]methyl]-3-(6-methylpyridin-2-yl)urea]	54	1490
O=C(NCc1ccnc(OC(F)F)c1F)N[C@H]1C[C@H](C(F)(F)F)C1 [Example 219, 1-[[2-(difluoromethoxy)-3-fluoropyridin-4-yl]methyl]-3-[(1r,3r)-3-(trifluoromethyl)cyclobutyl]urea]	48	380
O=C(NCc1ccnc(OCC(F)CF)c1)Nc1cccc(Cl)c1 (centres unmarked) [Example 220, 1-(3-chlorophenyl)-3-[[2-(2,3-difluoropropoxy)pyridin-4-yl]methyl]urea]	48	460
CC(Oc1cc(CNC(=O)N[C@H]2C[C@H](C(F)(F)F)C2)ccn1)C(F)(F)F (some centres unmarked) [Example 221, 1-[(1r,3r)-3-(trifluoromethyl)cyclobutyl]-3-[[2-(1,1,1-trifluoropropan-2-yloxy)pyridin-4-yl]methyl]urea]	78	70
O=C(NCc1ccnc(OC(F)F)c1)NC1CCC2C(C1)C2(F)F (centres unmarked) [Example 222, 1-(7,7-difluoro-3-bicyclo[4.1.0]heptanyl)-3-[[2-(difluoromethoxy)pyridin-4-yl]methyl]urea]	76	180
CC(Oc1cc(CNC(=O)NC23CC(F)(C2)C3)ccn1)C(F)(F)F (centres unmarked) [Example 223, 1-(3-fluoro-1-bicyclo[1.1.1]pentanyl)-3-[[2-(1,1,1-trifluoropropan-2-yloxy)pyridin-4-yl]methyl]urea]	66	210
O=C(NCc1ccnc(OC2CC(F)(F)C2)c1)NC12CC(F)(C1)C2 [Example 224, 1-[[2-(3,3-difluorocyclobutyl)oxypyridin-4-yl]methyl]-3-(3-fluoro-1-bicyclo[1.1.1]pentanyl)urea]	40	540
O=C(NCc1ccnc(OC(F)F)c1)NC1CCOC(C(F)(F)F)C1 (centres unmarked) [Example 226, 1-[[2-(difluoromethoxy)pyridin-4-yl]methyl]-3-[2-(trifluoromethyl)oxan-4-yl]urea]	40	2450
O=C(NCc1ccnc(OC(F)F)c1)NCC1(F)CCCC1 [Example 227, 1-[[2-(difluoromethoxy)pyridin-4-yl]methyl]-3-[(1-fluorocyclopentyl)methyl]urea]	49	410
O=C(NCc1ccnc(OC(F)F)c1)NC(C(F)(F)F)C(F)(F)F [Example 228, 1-[[2-(difluoromethoxy)pyridin-4-yl]methyl]-3-(1,1,1,3,3,3-hexafluoropropan-2-yl)urea]	58	260
O=C(NCc1ccnc(OC(F)F)c1)NCC1(C(F)(F)F)CC1 [Example 229, 1-[[2-(difluoromethoxy)pyridin-4-yl]methyl]-3-[[1-(trifluoromethyl)cyclopropyl]methyl]urea]	49	600
O=C(NCc1ccnc(OC(F)F)c1)N[C@@H](C(F)F)C1CC(F)(F)C1 [Example 230, 1-[(1R)-1-(3,3-difluorocyclobutyl)-2,2-difluoroethyl]-3-[[2-(difluoromethoxy)pyridin-4-yl]methyl]urea]	55	1090
CC(F)(F)c1cc(CNC(=O)Nc2cccc(Cl)c2)ccn1 [Example 231, 1-(3-chlorophenyl)-3-[[2-(1,1-difluoroethyl)pyridin-4-yl]methyl]urea]	51	800
O=C(Nc1cccc(CF)c1)NC(CO)c1ccnc(OCC(F)(F)F)c1 (centres unmarked) [Example 232, 1-[3-(fluoromethyl)phenyl]-3-[2-hydroxy-1-[2-(2,2,2-trifluoroethoxy)pyridin-4-yl]ethyl]urea]	47	250
Cc1cccc(NC(=O)NC(CO)c2ccnc(OCC(F)(F)F)c2)c1 (centres unmarked) [Example 233, 1-[2-hydroxy-1-[2-(2,2,2-trifluoroethoxy)pyridin-4-yl]ethyl]-3-(3-methylphenyl)urea]	68	130
